Assay results published in article PMC9694965, “Design of 4-Substituted Sulfonamidobenzoic Acid Derivatives Targeting Coxsackievirus B3” (Life, 2022).

Tests used:
[1] = tested on: CVB3 Nancy; assay: Cytoprotection assay (MTT) in Vero cells infected with CVB3 Nancy; type: cell-based, Coxsackievirus B3; conditions: for EC50: Enterovirus B, Vero cells infected with CVB3 Nancy at m.o.i. 0.001, 72 h, MTT, read-out: EC50 (50% cytoprotective concentration); for SI (selectivity index, ratio CC50/IC50): cytoprotection assay, CC50 72 h / EC50
Method: (§1) Vero cells were seeded in 96-well plates in 24 h before the assay. On the assay day, the cells were washed with saline and tested compounds in appropriate concentrations (300–3 μg/mL) in MEM without FBS were added to cells. No compounds were added to virus control wells. The plates were incubated for 1 h at 37 °C at 5% CO2. The cells were then infected with CVB3 Nancy (m.o.i range of 1–0.001) and incubated for 72 h at 37 °C at 5% CO2. No virus was added to the cytotoxicity control wells. Cell viability was then assessed using an MTT test with the following procedure. The cells were washed with saline, and a solution of 3-(4,5-dimethylthiazolyl-2) 2,5-diphenyltetrazolium bromide (ICN Biochemicals Inc., Aurora, OH, USA) ([…]) in MEM was added to the wells (100 µL per well). After 2 h of incubation at 37 °C in 5% CO2, the supernatant from wells was discarded, and the formazan residue was dissolved in DMSO (100 µL per well). The optical density of cells was then measured on a Multiskan multifunctional reader (Thermo Fisher Scientific, Shanghai, China) at a wavelength of 540 nm.
The cytoprotective activity of compounds was considered to be their ability to increase the values of OD compared to control wells (using only a virus, without drugs). Based on the results obtained, the values of IC50, i.e., the concentration of compounds that result in 50% cells protection were calculated for m.o.i. 0.001 using GraphPad Prism 6.01 software.

[2] = tested on: Coxsackievirus B3 (Nancy); assay: Viral yield reduction assay in Vero cells; type: cell-based; conditions: for IC50: Enterovirus B, B3 / CVB3, viral yield reduction, Vero cells, CVB3 Nancy at m.o.i. 0.01, 24 h, read-out: IC50 (50% virus-inhibiting concentration); for SI (selectivity index, ratio CC50/IC50): viral yield reduction assay, CC50 24 h / IC50
Method: Coxsackievirus B3 (CVB3, strain Nancy) was obtained from the collection of viruses of the Pasteur Institute (St. Petersburg, Russia). The permissive cell line Vero (ATCC #CCL-81) was used in the study. Infectious titers (in a 50%-tissue culture infection dose, TCID50) were determined in Vero cells for CVB3 by endpoint dilution assay using the following procedure. Permissive cells were seeded into 96-wells plates in Eagles minimal essential medium (MEM) supplemented with 5% fetal bovine serum (FBS). After 24 h, the medium was aspirated, the wells were washed with saline, fresh MEM without FBS was added to the wells and the cells were infected with serial tenfold dilutions of virus stocks (100 µL per well, 4 wells for each dilution). The plates were incubated at +37 °C in 5% CO2 and observed daily for cytopathic effect (CPE). After 72 h the viral titer was calculated in TCID50 using the method of Spearmen-Carber.
The antiviral activity of the compounds was evaluated using viral yield reduction assay. The respective permissive cell line Vero was seeded in MEM supplemented with 5% FBS in 24-well plates. When the cell confluence reached 100%, the compounds tested were dissolved in DMSO, and a series of three-fold dilutions of each compound in MEM without FBS was added to the cells, and incubated at 37 °C in 5% CO2. After 1 h, the media were discarded; equal volumes of fresh serial dilutions of each compound and viral suspension in MEM without FBS at […] were added. In control wells, only MEM without FBS was added. No compounds were added in the virus control wells. The plates were incubated at 4 °C for 1 h. The unbound virus was then washed away and, again, three-fold dilutions of each compound (the final concentration 50–0.6 µg/mL) in MEM without FBS were added to the wells. After 24 h of incubation at 37 °C in 5% CO2, the infectious titer of viral progeny (in TCID50) for each compound concentration, cell control, and virus control wells were determined in permissive cell lines by endpoint dilution assay as described above.
The titer of virus progeny was plotted against log concentration of the compounds tested to generate the dose–response curve. The 50% inhibition concentration (IC50) of each compound tested (i.e., the compound concentration that decreases the infectious viral progeny titer twice, as compared to the control wells) was calculated using a four-parameter logistic nonlinear regression model (GraphPad Prism 6.01).

[3] = Cytotoxicity assay (MTT) in Vero cells; type: cell-based; conditions: African green monkey; for CC50 at 24 h: 24 h incubation with the compound only; for CC50 at 72 h: 72 h incubation with the compound only
Method: as §1
(§2) The microtetrazolium test (MTT) was used to study the cytotoxicity of the compounds. The permissive cell line Vero was seeded in 96-well plates in Eagles minimal essential medium (MEM) supplemented with 10% FBS. After 24 h, the media were removed, and the wells were washed with saline. Compounds were dissolved in DMSO, and a series of two-fold dilutions of each compound in MEM without FBS were prepared and added to the cells in triplicates. […] The MTT was then performed as described above. Next, the optical density of cells was measured on a Multiskan multifunctional reader (Thermo Fisher Scientific, Shanghai, China) at a wavelength of 540 nm and plotted against the concentration of the compounds to generate the dose–response curve. The 50% cytotoxic dose (CC50) of each compound (i.e., the compound concentration that causes the death of 50% of cells in a culture, or decreases the optical density twice, as compared to the control wells) was calculated using a four-parameter logistic nonlinear regression model (GraphPad Prism 6.01).

[4] = tested on: Vero cells; assay: Cytotoxicity assay (MTT) in Vero cells; type: cell-based; conditions: incubation with the compound only
Method: as §1, §2

[5] = tested on: CVB3 Nancy; assay: Thermostability assay (capsid binding, heat inactivation of virus); set-up: species or system Coxsackievirus B3; conditions: pre-incubation 30 min at 37 °C, thermal gradient 37-55 °C for 2 min; for Effect on heat inactivation of CVB3 (capsid stabilization): versus virus control
Method: CVB3 Nancy was pre-incubated with the compounds tested or an equal volume of MEM (virus control) for 30 min at +37 °C in sterile thin-walled 200 μL PCR-tubes (7 tubes per each treatment condition) in BioRad CFX PCR-machine. The thermal gradient of 37–55 °C for 2 min was then applied, followed by rapid cooling to 4 °C. Subsequently, the infectious virus load at each thermal condition for each compound tested was quantified by end-point dilution assay.

Structure (SMILES) | EC50 [1] | SI (selectivity index, ratio CC50/IC50) [1] | IC50 [2] | SI (selectivity index, ratio CC50/IC50) [2] | CC50 at 24 h [3] | CC50 at 72 h [3] | CC50 [4] | Effect on heat inactivation of CVB3 (capsid stabilization) [5] | melting point | Temperature to which infectivity of CVB3 was preserved ([5]; concentrations greatly exceeding IC50)
O=C(O)c1ccc(NS(=O)(=O)c2ccc(N3C(=O)c4ccccc4C3=O)cc2)cc1 [Compound 2a, 4-(4-(1,3-Dioxoisoindolin-2-yl)phenylsulfonamido)benzoic acid, reference compound] | < 8.76 µM | >81.1 | 5.54 ± 0.89 µM | >213 | > 1.18 mM | > 710 µM | exceeded the maximum concentration used in the assay | heat inactivation of CVB3 changed to higher temperatures |  | 
O=C(O)C1CCN(S(=O)(=O)c2ccc(N3C(=O)c4ccccc4C3=O)cc2)CC1 [Compound 2g, 1-((4-(1,3-Dioxoisoindolin-2-yl)phenyl)sulfonyl)piperidine-4-carboxylic acid] | 12.3 ± 2.07 µM | >18.5 |  |  |  | > 228 µM |  |  | 207 to 210 °C | 
O=C(O)c1ccc(NS(=O)(=O)c2ccc(N3C(=O)c4cccc5cccc(c45)C3=O)cc2)cc1 [Compound 7e, 4-(4-(1,3-Dioxo-1H-benzo[de]isoquinolin-2(3H)-yl)phenylsulfonamido)benzoic acid] | > 635 µM | <1 |  |  |  | 531 ± 48.4 µM |  |  | 284 to 286 °C | 
CCOC(=O)c1ccc(NS(=O)(=O)c2ccc(N3C(=O)c4ccccc4C3=O)cc2)cc1 [Compound 2b, Ethyl 4-(4-(1,3-dioxoisoindolin-2-yl)phenylsulfonamido)benzoate] | > 444 µM | <1 |  |  |  | 40 ± 4.12 µM |  |  |  | 
NC(=O)c1ccc(NS(=O)(=O)c2ccc(N3C(=O)c4ccccc4C3=O)cc2)cc1 [Compound 2c, 4-(4-(1,3-Dioxoisoindolin-2-yl)phenylsulfonamido)benzamide] | > 475 µM | <1 |  |  |  | 472 ± 38.2 µM |  |  | 240 to 242 °C | 
CC(=O)Nc1ccc(NS(=O)(=O)c2ccc(N3C(=O)c4ccccc4C3=O)cc2)cc1 [Compound 2f] | > 689 µM | <1 |  |  |  | 181 ± 19.2 µM |  |  | 220 to 222 °C | 
NC(=O)C1CCN(S(=O)(=O)c2ccc(N3C(=O)c4ccccc4C3=O)cc2)CC1 [Compound 2h, 1-((4-(1,3-Dioxoisoindolin-2-yl)phenyl)sulfonyl)piperidine-4-carboxamide] | > 726 µM | >1 |  |  |  | > 726 µM | exceeded the maximum concentration used in the assay |  | 217 to 220 °C | 
O=C(O)c1ccc(NS(=O)(=O)c2ccc(N3C(=O)CCC3=O)cc2)cc1 [Compound 7a, 4-(4-(2,5-Dioxopyrrolidin-1-yl)phenylsulfonamido)benzoic acid] | < 9.88 µM | >34.8 | 4.22 ± 0.35 µM | >316 | > 1.34 mM | 345 ± 32.2 µM |  | heat inactivation of CVB3 changed to higher temperatures | 243 to 245 °C (dec.) | 52.4 °C
N#Cc1ccc(NS(=O)(=O)c2ccc(N3C(=O)c4ccccc4C3=O)cc2)cc1 [Compound 2d, N-(4-Cyanophenyl)-4-(1,3-dioxoisoindolin-2-yl)benzenesulfonamide] | 744 ± 67.3 µM | <1 |  |  |  | 625 ± 57.5 µM |  |  | 224 to 226 °C | 
O=C(O)c1ccc(NS(=O)(=O)c2ccc(N3C(=O)C4C5CCC(C5)C4C3=O)cc2)cc1 (stereo not shown) [Compound 7d, 4-(4-(1,3-Dioxohexahydro-1H-4,7-methanoisoindol-2(3H)-yl)phenylsulfonamido)benzoic acid] | < 8.39 µM | >81.1 | 19.6 ± 0.49 µM | >58 | > 1.14 mM | 681 ± 54.8 µM |  |  | 265 to 267 °C | 
NS(=O)(=O)c1ccc(NS(=O)(=O)c2ccc(N3C(=O)c4ccccc4C3=O)cc2)cc1 [Compound 2e, 4-(1,3-Dioxoisoindolin-2-yl)-N-(4-sulfamoylphenyl)benzenesulfonamide] | > 437 µM | <1 |  |  |  | 437 ± 35.1 µM |  |  | 261 to 263 °C | 
O=C(O)c1ccc(NS(=O)(=O)c2ccc(N3C(=O)C4CC=CCC4C3=O)cc2)cc1 (stereo not shown) [Compound 7b, 4-(4-(1,3-Dioxo-3a,4,7,7a-tetrahydro-1H-isoindol-2(3H)-yl)phenylsulfonamido)benzoic acid] | < 8.67 µM | >54.6 | 11.1 ± 0.16 µM |  | 0.933 ± 0.0751 mM | 474 ± 38.5 µM |  |  | 250 to 252 °C | 
O=C(O)CCCNS(=O)(=O)c1ccc(N2C(=O)c3ccccc3C2=O)cc1 [Compound 2i, 4-(4-(1,3-Dioxoisoindolin-2-yl)phenylsulfonamido)butanoic acid] | < 28.6 µM | >10 | 37.9 ± 1.08 µM | 33 | 1.26 ± 0.11 mM | 283 ± 31.1 µM |  |  |  | 
CCOC(=O)c1ccc(NS(=O)(=O)c2ccc(NC(=O)c3ccccc3C(=O)O)cc2)cc1 [Compound 3, 2-((4-(N-(4-(Ethoxycarbonyl)phenyl)sulfamoyl)phenyl)carbamoyl)benzoic acid] | > 427 µM | >1 |  |  |  | > 640 µM |  |  |  | 
O=C(O)c1ccc(NS(=O)(=O)c2ccc(N3C(=O)C4C5C=CC(C5)C4C3=O)cc2)cc1 (stereo not shown) [Compound 7c, 4-(4-(1,3-Dioxo-3a,4,7,7a-tetrahydro-1H-4,7-methanoisoindol-2(3H)-yl)phenylsulfonamido)benzoic acid] | < 8.44 µM | >81.1 | 19.6 ± 0.52 µM | >58 | > 1.14 mM | > 684 µM | exceeded the maximum concentration used in the assay |  | 241 to 243 °C | 
